Data on two compounds can be found in article PMC3743547 (Biochemistry, 2013).

Where only a bound is given, the exact number is not on record here.

Assay [1] deals with T1, MppR (Streptomyces hygroscopicus, UniProt Q643B8). As to the kind of experiment: X-ray crystal structure, […] Å. To be noted: covalent; Schiff base with Lys156; 30 mM sodium pyruvate, 24 h soak. Format: binding.
For assay [2], the target named is T1, MppR. As to the kind of experiment: steady-state kinetics of aldol condensation. Conditions: co-substrate pyruvate; no saturation below the solubility limit. Format: biochemical.

In the case of `CC(=O)C(=O)O` [pyruvate], at MppR [1], the “X-ray crystal structure, 1.72 Å (crystal soak)” value is on record as “resulting structure showed pyruvate covalently bound to Lys156 as the Schiff base”.
Turning to `O=Cc1c[nH]cn1` [compound 6, 4-imidazolecarboxaldehyde], on MppR [2], the Km is more than 50 mM.
